# From US20110070294A1, “Methods for the Administration of Drugs Using Liposomes” (priority 2009, published 2011)
# Test system: bovine blood treated with heparin
# Assay: Hemolysis of heparin-treated bovine blood, absorbance of supernatant at 398 nm
# Conditions: sample added to 1.4 mL heparinized bovine blood, room temperature, 10 minutes
# Description: 100 μL of a 5 mg/mL lyophilized docetaxel preparation (50 mM sodium oleate reconstituted with 6% liposome (Doc-100), 200 μL of 5 mg/mL lyophilized docetaxel containing 50 mM sodium oleate and reconstituted with 6% liposome (Doc-200), […] of placebo containing 50 mM sodium oleate and reconstituted with 6% liposome (Placebo-100), 200 μL of placebo containing 50 mM sodium oleate and reconstituted with 6% liposome (Placebo-200), […] of Reverse osmotic deionized water (RODI (positive control)), 50 n1, of 50 mM sodium oleate (Na oleate-50) in isotonic 2.5% glycerol or 100 μL of 50 mM sodium oleate (Na oleate-100), or 200 μL of phosphate buffered saline (negative control)) was added to 1.4 mL of bovine blood treated with heparin. Doc-100 and Doc-200 were prepared using procedures similar to those in Examples 1 and 2. The samples were incubated at room temperature for 10 minutes, and then centrifuged at 8000 rpm for 20 minutes. The supernatant was used for spectral analysis. The absorbance of the samples was measured by UV-scanning the samples at wavelengths from 190 nm to 810 nm. The high absorbance at 398 nm is due to hemolysis of the blood.
smiles,measurement,value
"CCCCCCCC/C=C\CCCCCCCC(=O)[O-].[Na+] [Na oleate-50, sodium oleate]","hemolysis (absorbance at 398 nm, FIG. 1)",complete hemolysis
